Reference: ChEMBL document CHEMBL6177995, “In Silico Discovery of Novel Potent Trace Amine-Associated Receptor TAAR1 Agonists as Promising Drug Candidates for the Treatment of Schizophrenia” (J Med Chem, 2025)

Experiments:
[1] = target: T1, Trace amine-associated receptor 1 (Homo sapiens, UniProt Q96RJ0); assay: Agonist activity at TAAR1 (unknown origin) transfected in HEK293 cells co-transfected with GalphaS-Nluc, Gbeta1/3 and Ggamma1/2/9-mVenus assessed as GalphaS-Gbeta/gamma dissociation by BRET assay; assay type: functional, cell-based
T1 sequence (Q96RJ0 whole entry): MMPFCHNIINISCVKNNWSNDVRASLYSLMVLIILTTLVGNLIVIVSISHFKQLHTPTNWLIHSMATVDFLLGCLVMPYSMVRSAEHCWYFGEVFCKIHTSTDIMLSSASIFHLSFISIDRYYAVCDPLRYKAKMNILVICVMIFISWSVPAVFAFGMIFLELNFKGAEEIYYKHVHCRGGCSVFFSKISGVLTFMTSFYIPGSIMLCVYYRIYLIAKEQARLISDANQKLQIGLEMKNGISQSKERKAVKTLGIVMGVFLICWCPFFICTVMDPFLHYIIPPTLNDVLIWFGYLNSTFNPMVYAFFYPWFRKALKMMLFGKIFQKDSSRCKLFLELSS

[2] = target: T1, Trace amine-associated receptor 1; assay: Agonist activity at TAAR1 (unknown origin) transfected in HEK293 cells co-transfected with Galphaq-Nluc, Gbeta1/3 and Ggamma1/2/9-mVenus assessed as Galphaq-Gbeta/gamma dissociation by BRET assay; assay type: functional, cell-based

Row | EC50 [1] [µM] | EC50 [2] [µM] | Structure (SMILES)
1 | > 10 | > 10 | O=S(=O)(NC[C@@H]1CCCN1)c1cccc(Br)c1
2 | 0.161 | – | COc1ccc2c(c1OC)C(=O)OC2Nc1ccccn1 (stereo unspecified)
3 | > 10 | > 10 | Cc1cccc(S(=O)(=O)NC[C@@H]2CCCN2)c1
4 | – | 0.0055 | O=c1[nH]c2ccc(S(=O)(=O)NC[C@@H]3CCCN3)cc2[nH]c1=O
5 | > 10 | > 10 | O=S(=O)(NC[C@@H]1CCCN1)c1ccc(C(F)(F)F)cc1
6 | > 10 | > 10 | O=S(=O)(NC[C@@H]1CCCN1)c1ccccc1
7 | – | 0.0632 | O=S(=O)(NC[C@@H]1CCCN1)c1ccccc1Cl
8 | > 10 | > 10 | O=S(=O)(NC[C@@H]1CCCN1)c1cccc(Cl)c1
9 | 0.0488 | – | CNc1ncc(S(C)(=O)=O)c(C2CCCNC2)n1 (stereo unspecified)
10 | > 10 | > 10 | O=S(=O)(NC[C@@H]1CCCN1)c1ccc(Cl)cc1
